PMC4729890 (Frontiers in Molecular Neuroscience, 2016)

Legend:
[1] = target: T1, ROS-GC1 (Bos taurus, UniProt P55203); experiment: biochemical
T1 construct: gene GUCY2D

[2] = target: T2, ROS-GC1 (Bos taurus, UniProt P55203, F570S); experiment: biochemical
T2 construct: gene GUCY2D
T2 sequence (P55203 57-1110 F570S): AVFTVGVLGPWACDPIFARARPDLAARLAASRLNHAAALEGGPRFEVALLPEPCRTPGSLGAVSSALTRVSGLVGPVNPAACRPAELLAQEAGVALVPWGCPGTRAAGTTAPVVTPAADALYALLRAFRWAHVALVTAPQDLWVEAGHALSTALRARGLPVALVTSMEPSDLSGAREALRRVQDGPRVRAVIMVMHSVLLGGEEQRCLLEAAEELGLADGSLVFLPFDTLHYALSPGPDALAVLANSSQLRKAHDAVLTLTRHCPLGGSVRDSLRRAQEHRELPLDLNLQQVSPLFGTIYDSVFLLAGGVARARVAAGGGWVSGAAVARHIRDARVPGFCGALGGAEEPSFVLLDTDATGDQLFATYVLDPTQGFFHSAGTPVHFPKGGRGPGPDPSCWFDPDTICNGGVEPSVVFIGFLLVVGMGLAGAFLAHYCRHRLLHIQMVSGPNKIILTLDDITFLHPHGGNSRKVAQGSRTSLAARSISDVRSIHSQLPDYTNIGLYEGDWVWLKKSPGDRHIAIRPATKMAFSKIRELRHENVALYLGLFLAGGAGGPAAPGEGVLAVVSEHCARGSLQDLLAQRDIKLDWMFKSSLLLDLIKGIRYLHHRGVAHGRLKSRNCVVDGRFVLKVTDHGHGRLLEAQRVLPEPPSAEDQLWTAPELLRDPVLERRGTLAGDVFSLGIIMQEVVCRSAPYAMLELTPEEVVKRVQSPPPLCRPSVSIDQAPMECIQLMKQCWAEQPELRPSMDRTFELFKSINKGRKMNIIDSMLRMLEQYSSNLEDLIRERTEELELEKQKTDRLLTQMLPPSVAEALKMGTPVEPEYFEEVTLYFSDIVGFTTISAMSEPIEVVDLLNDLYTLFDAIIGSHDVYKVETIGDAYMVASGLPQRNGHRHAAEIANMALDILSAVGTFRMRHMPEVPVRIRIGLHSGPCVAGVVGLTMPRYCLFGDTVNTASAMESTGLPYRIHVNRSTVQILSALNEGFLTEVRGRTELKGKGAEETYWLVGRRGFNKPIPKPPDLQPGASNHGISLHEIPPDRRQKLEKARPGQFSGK

T1 sequence (P55203 57-1110): as the sequence (P55203 57-1110 F570S) above, with S514F counted along it

O=C(O)O [bicarbonate]
EC50 [1]: 16 mM
EC50 [2]: 25 mM
